In article PMC12147034, “Identification of alkynyl nicotinamide HSN748 as a RET solvent-front mutant inhibitor with intracranial efficacy” (RSC Medicinal Chemistry, 2025):
Where two headings read alike, the source gives them in different places.

Assays:
[1] = tested on: B/KR(G810C)-luc brain tumors; experiment: Intracranial B/KR(G810C)-luc tumor experiment (bioluminescence imaging); type: in vivo, mice; conditions: for inhibition at 10 mg/kg: Mus musculus, 10 mg kg^-1, not statistically significant
Procedure: Fig. 5 Intracranial efficacy of alkynyl nicotinamide-based RET TKIs. B/KR(G810C)-luc cells were injected into mouse brains and treated with indicated compounds. (A) Responses of intracranial tumors to the treatment were monitored by measurement of bioluminescence signal in the animal heads. The data are means and SEM. (B) Response of extracranial tumors were monitored by subtracting whole body bioluminescence signal with the bioluminescence signals of the head. (C) Bioluminescence images of vehicle- and 20 mg kg^−1 HSN748-treated mice on day 0 and day 23 to illustrate the progression of tumors in vehicle-treated mice and suppression of tumor growth in HSN748-treated mic. TEXT PRINTED IN THE PICTURE: (C) HSN748: ROI 5 = 6.99e+4 (20 mg/kg; Day 0); ROI 5 = 9.86e+4 (20 mg/kg; Day 0); ROI 1 = 2.22e+5 (20 mg/kg; Day 0); ROI 1 = 1.08e+8 (20 mg/kg; Day 23); ROI 2 = 1.43e+7 (20 mg/kg; Day 23); ROI 3 = 1.59e+9 (20 mg/kg; Day 23); ROI 1 = 3.56e+8 (20 mg/kg; Day 23) DOUBTS OF THE COPYIST ABOUT THIS PICTURE: Panels A and B print no numbers for any substance, only curves, axes and legends, so nothing was read from them. / Panel C: the ROI values are very small, blurred instrument overlays on the mouse images. In all values given, the digits 3, 5, 6, 8 and 9 and the exponents cannot be told apart with certainty. / HSN748, Day 0, 'ROI 5 = 6.99e+4': the ROI number may be 1 or 5, and 6.99 may be 8.99. / HSN748, Day 0, 'ROI 5 = 9.86e+4': the ROI number may be 3 or 5, and the exponent may be cut off at the image edge. / HSN748, Day 0, 'ROI 1 = 2.22e+5': the last digit of the exponent is uncertain. / HSN748, Day 0: 'ROI 3 = ...', 'ROI 2 = 2.35e...', 'ROI 1 = 3.0...' and the fragments 'e+5' and 'e+4' are cut off by the image crop and were left out. / HSN748, Day 23: 'ROI 2 = ...' in the right image is cut off and was left out. / HSN748, Day 23, 'ROI 1 = 1.08e+8': may be 1.06 or 1.08. / HSN748, Day 23, 'ROI 3 = 1.59e+9': the exponent may be 8 or 9. / HSN748, Day 23, 'ROI 1 = 3.56e+8': may be 3.58 or 3.56. / The Vehicle (control) mice in panel C also carry ROI labels. They were left out because Vehicle is a control, not a substance, and several are cut off. Day 0 reads about ROI 1 = 7.31e+4, ROI 2 = 9.65e+4, ROI 3 = 2.43e+5. Day 23 reads about ROI 1 = 7.32e+6, ROI 2 = 1.14e+9, ROI 3 = 1.31e+..., ROI 1 = 7.77e+9.
Intracranial tumor experiments were performed using female NRG mice (Jackson Laboratory stock #007799) 10–12 weeks old as the hosts. Mice were anesthetized with 3% isoflurane gas and situated in a stereotactic frame (Stoelting). To determine the injection site, the scalp was opened with a scalpel and the bregma was located. Then the point 1.5 mm posterior and 2 mm to the right was identified and a 2 mm burr hole was drilled just through the skull. 3 × 10^5 B/KR(G810C)-Luc cells in 3 μL were injected into the brain at a depth of 4 mm over 3 minutes using a 10 μL Hamilton syringe. The syringe was withdrawn over 5 minutes and the hole was filled with bone wax, the scalp was closed with medical glue, and the mice were returned to a heated cage for recovery. Tumor growth was determined via bioluminescent imaging with a Spectral Ami Optical Imaging System (Bruker). Mice were anesthetized with 3% isoflurane gas and injected intraperitoneally with 150 mg kg^−1D-luciferin. After 15 minutes, mice were imaged for photon emission to determine tumor burden.

B/KR(G810C) CDX tumors = experiment: Subcutaneous B/KR(G810C) CDX tumor study; type: in vivo, mice; conditions: 25 mg kg^-1, qd; for effect on s.c. B/KR(G810C) tumor growth: mice; for tumor sizes at necropsy and RET phosphorylation in tumor lysates: dissected tumors, immunoblotting
Procedure: Fig. 2 Anti-tumor activity of alkynyl nicotinamide compounds on subcutaneous […]. Mice with tumors (6 mice/group) were treated with indicated compound (25 mg kg^−1, qd) or vehicle by oral gavage. The vehicle-treated mice were as reported[13] and were performed in parallel with other treatments in the same experiment. (A) Tumor dimensions were measured with a caliper and the sizes were calculated as tumor size = (length × width × width)/2. The data are mean ± SD. (B) Mouse body weights were measured on the indicated days. (C) Images of dissected tumors collected at necropsy. (D) Immunoblotting of tumor tissue samples with the indicated antibodies. […] The measure "Body weight" comes from the axis title.
All animal procedures were performed in accordance with the Guidelines for Care and Use of Laboratory Animals of University of Oklahoma Health Sciences, Purdue University, or the MD Anderson Cancer Center and approved by the Animal Ethics Committee of University of Oklahoma Health Sciences, Purdue University, or the MD Anderson Cancer Center. B/KR(G810C) cells were tested free of mycoplasma and mouse pathogens. Subcutaneous B/KR(G810C) CDX experiment was performed in parallel with other compounds reported previously.[13] Briefly, B/KR(G810C) cells (1 × 10^7 cells/0.1 ml per each) were inoculated s.c. into the right flank of 5-week-old female SHO mice (Charles Rivers, Wilmington, MA, USA). After measurable tumors were formed, mice were treated with test compounds or vehicle by oral gavage as specified in Fig. 2. Tumor size and animal body weight were measured with a caliper and a scale as described.[8,13]

[2] = read-out: inhibition of the extracranial tumors
[3] = read-out: inhibition of the intracranial tumors

Row | Compound | extracranial bioluminescence signals of B/KR(G810C)-luc tumor cells ([1]; 20 mg kg^-1) | inhibition of intracranial B/KR(G810C)-luc tumors ([1]; 20 mg kg^-1, bioluminescence signal in the head) | inhibition at 10 mg/kg [1, 2] [%] | inhibition at 10 mg/kg [1, 3] [%] | effect on s.c. B/KR(G810C) tumor growth (B/KR(G810C) CDX tumors; oral gavage) | tumor sizes at necropsy and RET phosphorylation in tumor lysates (B/KR(G810C) CDX tumors) | weight loss (B/KR(G810C) CDX tumors; oral gavage, mice with s.c. B/KR(G810C) tumors)
1 | CN1CCN(Cc2ccc(NC(=O)c3cncc(C#Cc4cnc5cccnn45)c3)cc2C(F)(F)F)CC1 [HSN748] | significantly inhibited | statistically significant inhibition | 58 | 52 | caused tumor regression | more effective in reducing tumor sizes and inhibiting RET phosphorylation | –
2 | CCOc1ccc2ncc(C#Cc3cncc(C(=O)Nc4ccc(CN5CCN(C)CC5)c(C(F)(F)F)c4)c3)n2n1 [HSND14, 5-((6-Ethoxyimidazo[1,2-b]pyridazin-3-yl)ethynyl)-N-(4-((4-methylpiperazin-1-yl)methyl)-3-(trifluoromethyl)phenyl)nicotinamide] | – | – | – | – | caused tumor regression | more effective in reducing tumor sizes and inhibiting RET phosphorylation | Weight loss was observed
3 | Cc1n[nH]c2ncc(C#Cc3cncc(C(=O)Nc4ccc(CN5CCN(C)CC5)c(C(F)(F)F)c4)c3)cc12 [HSND19, 5-((3-Methyl-1H-pyrazolo[3,4-b]pyridin-5-yl)ethynyl)-N-(4-((4-methylpiperazin-1-yl)methyl)-3-(trifluoromethyl)phenyl)nicotinamide] | significantly inhibited | – | 85 | 28 | – | – | –
